Literature values in patent publication US11524087B2, “Microwave assisted methods and systems for surface decontamination” (priority 2019, dated 2022).

**Q.** With `[O][Cl+][O-]` [CD, chlorine dioxide] as the compound, how does the “short term exposure limit (STEL)” value (15-minute) read?
**A.** 0.25 ppm

**Q.** And the “immediately damaging to life and health (IDLH) level” value (NIOSH)?
**A.** 5 ppm

**Q.** What about the “permissible exposure limit (PEL)” value (OSHA) of the same compound?
**A.** 0.1 ppm
